Assay results reported in the supplement of paper PMC11208160.

Assay: recombinant UMI read abundance after kanamycin selection (control-corrected) (log10(CPM+1)); higher = more efficient recombination; extreme values may be limits of the assay; sequences stand for … in AGTGCAGAGAAAATCGGCCAGTTTTCTCTGCCTGCAGTCCGCATGCCGTGGGACCCCTTGGGTTCTAACCTGTTGCCTAGATTTATGCAGCGGACTGCCTTTCTCCCAAAGTGATAAACCGG…AGGTTGGTTTCACT; site = the 11-nt donor
Method in brief: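 Values, expressed as log10(CPM+1), derive from recombinant UMI counts converted to CPM, averaged across replicates and scaled by control-derived factors. Plating was with IPTG (0.07 mM) plus kanamycin or unselected, two replicates each. The screen pooled donor and donor-binding-loop pairs for the IS621 bridge recombinase in Escherichia coli.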
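Note: IS621 bridge recombinase in Escherichia coli cells against a fixed T5 target plasmid.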

Sequence	recombinant UMI read abundance (log10)
TACCTAGCATGGACCGGTTTTCCCGGTAATCCGTATTTGAA (site TAACTAGCTTT)	0
TACCTAGCATGGACCGGTTTTCCCGGTAATCCGTATTTGAA (site TACCTAGCTTT)	0.00543
TACCTAGCATGGACCGGTTTTCCCGGTAATCCGTATTTGAA (site TAGCTAGCTTT)	0
TACCTAGCATGGACCGGTTTTCCCGGTAATCCGTATTTGAA (site TATCTAGCTTT)	0.0166
TACCTGACATGGACCGGTTTTCCCGGTAATCCGTATTTGTG (site TACCTGACTCA)	0.0209
TACGACGCATGGACCGGTTTTCCCGGTAATCCGTATTTGGG (site TACGACGCTCC)	0.012
TACGGAACATGGACCGGTTTTCCCGGTAATCCGTATTTGCT (site TACGGAACTAG)	0.249
TACGGACCATGGACCGGTTTTCCCGGTAATCCGTATTTGTC (site TACGGACCTGA)	0
TACGGCCCATGGACCGGTTTTCCCGGTAATCCGTATTTGCG (site TACGGCCCTCG)	0.024
TACGTCACATGGACCGGTTTTCCCGGTAATCCGTATTTGGG (site TACGTCACTCC)	0.0239
TACGTGACATGGACCGGTTTTCCCGGTAATCCGTATTTGCA (site TACGTGACTTG)	2.29
TACTAGACATGGACCGGTTTTCCCGGTAATCCGTATTTGCT (site TACTAGACTAG)	1.84
TACTAGACATGGACCGGTTTTCCCGGTAATCCGTATTTGCT (site TACTCGACTAG)	0.00336
TACTAGACATGGACCGGTTTTCCCGGTAATCCGTATTTGCT (site TACTGGACTAG)	0
TACTAGACATGGACCGGTTTTCCCGGTAATCCGTATTTGCT (site TACTTGACTAG)	0
TACTAGTCATGGACCGGTTTTCCCGGTAATCCGTATTTGGA (site TACTAGTCTTC)	1.59

Sequence	recombinant UMI read abundance (log10)
TACTCCTCATGGACCGGTTTTCCCGGTAATCCGTATTTGCC (site AACTCCTCTGG)	0.934
TACTCCTCATGGACCGGTTTTCCCGGTAATCCGTATTTGCC (site CACTCCTCTGG)	1.86
TACTCCTCATGGACCGGTTTTCCCGGTAATCCGTATTTGCC (site GACTCCTCTGG)	0.715
TACTCCTCATGGACCGGTTTTCCCGGTAATCCGTATTTGCC (site TACTCCTCTGG)	2.63
TACTCGACATGGACCGGTTTTCCCGGTAATCCGTATTTGCT (site TACTAGACTAG)	0.956
TACTCGACATGGACCGGTTTTCCCGGTAATCCGTATTTGCT (site TACTCGACTAG)	1.49
TACTCGACATGGACCGGTTTTCCCGGTAATCCGTATTTGCT (site TACTGGACTAG)	0.00865
TACTCGACATGGACCGGTTTTCCCGGTAATCCGTATTTGCT (site TACTTGACTAG)	1.01
TACTCGACATGGACCGGTTTTCCCGGTAATCCGTATTTGTC (site TACTCGACTGA)	0.0119
TACTGCGCATGGACCGGTTTTCCCGGTAATCCGTATTTGAC (site TACTGCGCTGT)	1.9
TACTGGTCATGGACCGGTTTTCCCGGTAATCCGTATTTGAC (site TACTGGTCTGT)	1.07
TACTTCGCATGGACCGGTTTTCCCGGTAATCCGTATTTGAT (site TACTTCGCTAT)	0.583
TACTTCTCATGGACCGGTTTTCCCGGTAATCCGTATTTGTT (site TACTTCTCTAA)	1.35
TACTTGACATGGACCGGTTTTCCCGGTAATCCGTATTTGAT (site TACTTGACTAA)	0.0207
TACTTGACATGGACCGGTTTTCCCGGTAATCCGTATTTGAT (site TACTTGACTAC)	0.015
TACTTGACATGGACCGGTTTTCCCGGTAATCCGTATTTGAT (site TACTTGACTAG)	0.00211
